Test systems include OVCAR-5 ovarian; IGROV1 ovarian; HCT-116 colon; CCRF-CEM leukemia; KM12 colon; A549 NSCLC; ACHN renal; LOX IMVI melanoma; HOP-92 NSCLC; SK-MEL-5 melanoma.
Assay in all cases: DTP human tumour cell line panel, 48 h

Here are results for three compounds from PubChem BioAssay (NCI).

The structures appear in SMILES notation.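 48-hour exposure; five concentrations; linearly interpolated endpoints. At the GI50, growth is halved. TGI: total growth inhibition.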

In general, TGI refers to the concentration at which net growth stops. Low readings indicate more potent growth arrest, high ones less potent growth arrest. In the case of `Oc1ccc2ccccc2c1C(c1ccc(Cl)cc1)c1c(O)ccc2ccccc12`, the TGI stood at 12 µM in the experiment with OVCAR-5 ovarian; 7.65 µM with IGROV1 ovarian; 9.36 µM with HCT-116 colon; 7.46 µM in the experiment with CCRF-CEM leukemia; 7.87 µM in the experiment with KM12 colon; 10.8 µM in the experiment on A549 NSCLC. Moreover, the TGI came out at 15.4 µM in the experiment on ACHN renal, 8.11 µM in the experiment on LOX IMVI melanoma, 4.89 µM in the experiment with HOP-92 NSCLC and 6.93 µM in the experiment with SK-MEL-5 melanoma.
Broadly, the GI50 is the concentration at which growth is held to half of that of the control. Regarding `Cc1cc(O)ccc1O`, the GI50 with OVCAR-5 ovarian was 16.6 µM; with IGROV1 ovarian it was 16.6 µM; with HCT-116 colon, 16.9 µM; in the experiment with CCRF-CEM leukemia, 3.4 µM; with KM12 colon, 26.2 µM; in the experiment with A549 NSCLC, more than 100 µM. The GI50 was 15.7 µM in the experiment on ACHN renal, 13.7 µM in the experiment on LOX IMVI melanoma, 16.3 µM with HOP-92 NSCLC and 62 µM in the experiment with SK-MEL-5 melanoma. In addition, the TGI in the experiment on OVCAR-5 ovarian was 32.1 µM; in the experiment with IGROV1 ovarian, 31 µM; in the experiment on HCT-116 colon it was 32.9 µM; in the experiment with CCRF-CEM leukemia it was more than 100 µM; with KM12 colon it was more than 100 µM; in the experiment on A549 NSCLC, more than 100 µM. In addition, the TGI in the experiment on ACHN renal is 29.1 µM; in the experiment with LOX IMVI melanoma, 27.4 µM; with HOP-92 NSCLC, 31.2 µM; in the experiment with SK-MEL-5 melanoma, more than 100 µM.
Consider `COc1cc(C(=O)N2CCN(c3ccccc3OC)CC2)c(N)cc1OCc1ccccc1`, for which the GI50 with OVCAR-5 ovarian was 80.6 µM; with IGROV1 ovarian, 28.5 µM; with HCT-116 colon, 20.7 µM; in the experiment on CCRF-CEM leukemia, 34.7 µM; with KM12 colon it was 32.9 µM; in the experiment with A549 NSCLC, 34.8 µM. Besides, the GI50 was 32.4 µM in the experiment with ACHN renal, 27.2 µM with LOX IMVI melanoma, 14.8 µM in the experiment with HOP-92 NSCLC and 16.5 µM with SK-MEL-5 melanoma. Further, the TGI with OVCAR-5 ovarian was more than 100 µM; in the experiment on IGROV1 ovarian it was more than 100 µM; with HCT-116 colon it was 42.8 µM; in the experiment on CCRF-CEM leukemia, 98.3 µM; in the experiment with KM12 colon, 90.6 µM; in the experiment with A549 NSCLC it was more than 100 µM. Besides, the TGI in the experiment with ACHN renal is more than 100 µM; in the experiment with LOX IMVI melanoma it was 71.3 µM; in the experiment on HOP-92 NSCLC it was 43.4 µM; with SK-MEL-5 melanoma, 31.4 µM.
